Here are results for one substance from patent publication US8530636B2, “Method for regulating protein function in cells in vivo using synthetic small molecules” (priority 2008, dated 2013).

Like-named read-outs stand apart in the source and are kept apart here.

For the data set, the system named is HCT116 tumors.

Turning to “1-[2-(3,4,5-trimethoxy-phenyl)-butyryl]-piperazine-2-carboxylic acid 3-(3,4-dimethoxy-phenyl)-1-[3-(2-morpholin-4-yl-ethoxy)-phenyl]-propyl ester [Shield1]”, where the note is “Shield1 delayed until 3 days following virus”, the “Virus in the tumor (viral luciferase expression)” value was “equivalent to those observed in animals treated with virus alone”. For the same substance, the “Virus in the tumor (viral luciferase expression)” value (Shield1 started prior to virus delivery) is “only modest levels of virus”. For the setting “mouse, in vivo”, the Adverse physiological effects result is reported as “no adverse physiological effects observed”; the “Tumor burden compared to virus alone” value is reported as “significantly decreased tumor burden”; the Tumor responses result is “Seven of the eight animals demonstrated complete and durable responses”. Further, the “Tumor burden, Shield1 alone” value (no virus) is reported as “no effect on tumor burden”.
